From US20230085307A1, “PYRIDAZINONE COMPOUND AND HERBICIDE” (NISSAN CHEMICAL CORPORATION, priority 2019, published 2023)

How the values were obtained:
barnyard grass [1] = experiment: Test Example 3: herbicidal effect by foliage application, Wagner pot (Table 18, symbol H); type: in vivo, barnyard grass (Echinochloa crus-galli); details: 320 g/ha
How it was run: (§1)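 Plants were sown in alluvial soil held under 0.1–0.5 cm standing water and grown 14 days in a greenhouse at 25–30 °C. An emulsifiable formulation, water-diluted to the set dose, was then sprayed onto the foliage, and effects were scored three weeks later using previously defined criteria.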

Chinese sprangletop = experiment: Test Example 3: herbicidal effect by foliage application, Wagner pot (Table 18, symbol D); type: in vivo, chinese sprangletop (Leptochloa chinensis); details: 320 g/ha
How it was run: as §1

rice flat sedge = experiment: Test Example 3: herbicidal effect by foliage application, Wagner pot (Table 18, symbol E); type: in vivo, rice flat sedge (Cyperus iria); details: 320 g/ha
How it was run: as §1

southern crabgrass = experiment: Test Example 5: herbicidal effect by foliage application, plastic box (Table 20, symbol F); type: in vivo, southern crabgrass (Digitaria ciliaris); details: amount of applied herbicide 320 g/ha; foliage application after 14-day growth; evaluated three weeks after application
How it was run: (§2)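 Plants were sown into sterilized diluvial soil under about 1.5 cm cover and kept in a greenhouse at 25° C. to 30° C. Fourteen days on, foliage received an even spray of the diluted emulsion. Herbicidal or crop effect was judged three weeks afterwards.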

green foxtail = experiment: Test Example 5: herbicidal effect by foliage application, plastic box (Table 20, symbol G); type: in vivo, green foxtail (Setaria viridis); details: amount of applied herbicide 320 g/ha; foliage application after 14-day growth; evaluated three weeks after application
How it was run: as §2

barnyard grass [2] = experiment: Test Example 5: herbicidal effect by foliage application, plastic box (Table 20, symbol H); type: in vivo, barnyard grass (Echinochloa crus-galli); details: amount of applied herbicide 320 g/ha; foliage application after 14-day growth; evaluated three weeks after application
How it was run: as §2

wild oat = experiment: Test Example 5: herbicidal effect by foliage application, plastic box (Table 20, symbol I); type: in vivo, wild oat (Avena fatua); details: amount of applied herbicide 320 g/ha; foliage application after 14-day growth; evaluated three weeks after application
How it was run: as §2

blackgrass = experiment: Test Example 5: herbicidal effect by foliage application, plastic box (Table 20, symbol J); type: in vivo, blackgrass (Alopecurus myosuroides); details: amount of applied herbicide 320 g/ha; foliage application after 14-day growth; evaluated three weeks after application
How it was run: as §2

Italian ryegrass = experiment: Test Example 5: herbicidal effect by foliage application, plastic box (Table 20, symbol K); type: in vivo, Italian ryegrass (Lolium multiflorum); details: amount of applied herbicide 320 g/ha; foliage application after 14-day growth; evaluated three weeks after application
How it was run: as §2

windgrass = experiment: Test Example 5: herbicidal effect by foliage application, plastic box (Table 20, symbol L); type: in vivo, windgrass (Apera spica-venti); details: amount of applied herbicide 320 g/ha; foliage application after 14-day growth; evaluated three weeks after application
How it was run: as §2

velvetleaf = experiment: Test Example 5: herbicidal effect by foliage application, plastic box (Table 20, symbol M); type: in vivo, velvetleaf (Abutilon theophrasti); details: amount of applied herbicide 320 g/ha; foliage application after 14-day growth; evaluated three weeks after application
How it was run: as §2

redroot pigweed = experiment: Test Example 5: herbicidal effect by foliage application, plastic box (Table 20, symbol N); type: in vivo, redroot pigweed (Amaranthus retroflexus); details: amount of applied herbicide 320 g/ha; foliage application after 14-day growth; evaluated three weeks after application
How it was run: as §2

lambsquarters = experiment: Test Example 5: herbicidal effect by foliage application, plastic box (Table 20, symbol O); type: in vivo, lambsquarters (Chenopodium album); details: amount of applied herbicide 320 g/ha; foliage application after 14-day growth; evaluated three weeks after application
How it was run: as §2

chickweed = experiment: Test Example 5: herbicidal effect by foliage application, plastic box (Table 20, symbol P); type: in vivo, common chickweed (Stellaria media); details: amount of applied herbicide 320 g/ha; foliage application after 14-day growth; evaluated three weeks after application
How it was run: as §2

persian speedwell = experiment: Test Example 5: herbicidal effect by foliage application, plastic box (Table 20, symbol R); type: in vivo, Persian speedwell (Veronica persica); details: amount of applied herbicide 320 g/ha; foliage application after 14-day growth; evaluated three weeks after application
How it was run: as §2

CCSc1cccc(-c2sc3c(Cl)cccc3c2-c2c(O)c(C)nn(C)c2=O)c1 [4-092]
herbicidal effect on barnyard grass (H) (barnyard grass [1]): 5 (Herbicidal rate of 90% or more (almost completely withered))
herbicidal effect on Chinese sprangletop (D) (Chinese sprangletop): 3 (Herbicidal rate of 40% or more and less than 70%)
herbicidal effect on rice flat sedge (E) (rice flat sedge): 4 (Herbicidal rate of 70% or more and less than 90%)
Herbicidal effect by foliage application, F: southern crabgrass (southern crabgrass): 4 (Herbicidal rate of 70% or more and less than 90%)
Herbicidal effect by foliage application, G: green foxtail (green foxtail): 3 (Herbicidal rate of 40% or more and less than 70%)
Herbicidal effect by foliage application, H: barnyard grass (barnyard grass [2]): 3 (Herbicidal rate of 40% or more and less than 70%)
Herbicidal effect by foliage application, I: wild oat (wild oat): 1 (Herbicidal rate of 5% or more and less than 20%)
Herbicidal effect by foliage application, J: blackgrass (blackgrass): 0 (Herbicidal rate of 5% or less (almost no effect))
Herbicidal effect by foliage application, K: Italian ryegrass (Italian ryegrass): 2 (Herbicidal rate of 20% or more and less than 40%)
Herbicidal effect by foliage application, L: windgrass (windgrass): 5 (Herbicidal rate of 90% or more (almost completely withered))
Herbicidal effect by foliage application, M: velvetleaf (velvetleaf): 3 (Herbicidal rate of 40% or more and less than 70%)
Herbicidal effect by foliage application, N: redroot pigweed (redroot pigweed): 5 (Herbicidal rate of 90% or more (almost completely withered))
Herbicidal effect by foliage application, O: lambsquarters (lambsquarters): 3 (Herbicidal rate of 40% or more and less than 70%)
Herbicidal effect by foliage application, P: chickweed (chickweed): 4 (Herbicidal rate of 70% or more and less than 90%)
Herbicidal effect by foliage application, R: persian speedwell (persian speedwell): 5 (Herbicidal rate of 90% or more (almost completely withered))

CCCC(=O)Oc1c(C)nn(C)c(=O)c1-c1c(-c2cccc3c2OCC3)sc2c(Cl)cccc12 [4-099]
herbicidal effect on barnyard grass (H) (barnyard grass [1]): 5 (Herbicidal rate of 90% or more (almost completely withered))
herbicidal effect on Chinese sprangletop (D) (Chinese sprangletop): 5 (Herbicidal rate of 90% or more (almost completely withered))
herbicidal effect on rice flat sedge (E) (rice flat sedge): 4 (Herbicidal rate of 70% or more and less than 90%)
Herbicidal effect by foliage application, F: southern crabgrass (southern crabgrass): 0 (Herbicidal rate of 5% or less (almost no effect))
Herbicidal effect by foliage application, G: green foxtail (green foxtail): 0 (Herbicidal rate of 5% or less (almost no effect))
Herbicidal effect by foliage application, H: barnyard grass (barnyard grass [2]): 0 (Herbicidal rate of 5% or less (almost no effect))
Herbicidal effect by foliage application, I: wild oat (wild oat): 0 (Herbicidal rate of 5% or less (almost no effect))
Herbicidal effect by foliage application, J: blackgrass (blackgrass): 0 (Herbicidal rate of 5% or less (almost no effect))
Herbicidal effect by foliage application, K: Italian ryegrass (Italian ryegrass): 0 (Herbicidal rate of 5% or less (almost no effect))
Herbicidal effect by foliage application, L: windgrass (windgrass): 0 (Herbicidal rate of 5% or less (almost no effect))
Herbicidal effect by foliage application, M: velvetleaf (velvetleaf): 1 (Herbicidal rate of 5% or more and less than 20%)
Herbicidal effect by foliage application, N: redroot pigweed (redroot pigweed): 2 (Herbicidal rate of 20% or more and less than 40%)
Herbicidal effect by foliage application, O: lambsquarters (lambsquarters): 0 (Herbicidal rate of 5% or less (almost no effect))
Herbicidal effect by foliage application, P: chickweed (chickweed): 1 (Herbicidal rate of 5% or more and less than 20%)
Herbicidal effect by foliage application, R: persian speedwell (persian speedwell): 4 (Herbicidal rate of 70% or more and less than 90%)

CSc1ccccc1-c1sc2c(C)cccc2c1-c1c(O)c(C)nn(C)c1=O [4-116]
herbicidal effect on barnyard grass (H) (barnyard grass [1]): 3 (Herbicidal rate of 40% or more and less than 70%)
herbicidal effect on Chinese sprangletop (D) (Chinese sprangletop): 4 (Herbicidal rate of 70% or more and less than 90%)
herbicidal effect on rice flat sedge (E) (rice flat sedge): 3 (Herbicidal rate of 40% or more and less than 70%)
Herbicidal effect by foliage application, F: southern crabgrass (southern crabgrass): 0 (Herbicidal rate of 5% or less (almost no effect))
Herbicidal effect by foliage application, G: green foxtail (green foxtail): 0 (Herbicidal rate of 5% or less (almost no effect))
Herbicidal effect by foliage application, H: barnyard grass (barnyard grass [2]): 0 (Herbicidal rate of 5% or less (almost no effect))
Herbicidal effect by foliage application, I: wild oat (wild oat): 0 (Herbicidal rate of 5% or less (almost no effect))
Herbicidal effect by foliage application, J: blackgrass (blackgrass): 0 (Herbicidal rate of 5% or less (almost no effect))
Herbicidal effect by foliage application, K: Italian ryegrass (Italian ryegrass): 0 (Herbicidal rate of 5% or less (almost no effect))
Herbicidal effect by foliage application, L: windgrass (windgrass): 0 (Herbicidal rate of 5% or less (almost no effect))
Herbicidal effect by foliage application, M: velvetleaf (velvetleaf): 0 (Herbicidal rate of 5% or less (almost no effect))
Herbicidal effect by foliage application, N: redroot pigweed (redroot pigweed): 0 (Herbicidal rate of 5% or less (almost no effect))
Herbicidal effect by foliage application, O: lambsquarters (lambsquarters): 0 (Herbicidal rate of 5% or less (almost no effect))
Herbicidal effect by foliage application, P: chickweed (chickweed): 4 (Herbicidal rate of 70% or more and less than 90%)
Herbicidal effect by foliage application, R: persian speedwell (persian speedwell): 4 (Herbicidal rate of 70% or more and less than 90%)

CCSc1cccc(-c2sc3c(C)cccc3c2-c2c(O)c(C)nn(C)c2=O)c1 [4-122]
herbicidal effect on barnyard grass (H) (barnyard grass [1]): 5 (Herbicidal rate of 90% or more (almost completely withered))
herbicidal effect on Chinese sprangletop (D) (Chinese sprangletop): 0 (Herbicidal rate of 5% or less (almost no effect))
herbicidal effect on rice flat sedge (E) (rice flat sedge): 4 (Herbicidal rate of 70% or more and less than 90%)
Herbicidal effect by foliage application, F: southern crabgrass (southern crabgrass): 3 (Herbicidal rate of 40% or more and less than 70%)
Herbicidal effect by foliage application, G: green foxtail (green foxtail): 1 (Herbicidal rate of 5% or more and less than 20%)
Herbicidal effect by foliage application, H: barnyard grass (barnyard grass [2]): 1 (Herbicidal rate of 5% or more and less than 20%)
Herbicidal effect by foliage application, I: wild oat (wild oat): 0 (Herbicidal rate of 5% or less (almost no effect))
Herbicidal effect by foliage application, J: blackgrass (blackgrass): 1 (Herbicidal rate of 5% or more and less than 20%)
Herbicidal effect by foliage application, K: Italian ryegrass (Italian ryegrass): 4 (Herbicidal rate of 70% or more and less than 90%)
Herbicidal effect by foliage application, L: windgrass (windgrass): 4 (Herbicidal rate of 70% or more and less than 90%)
Herbicidal effect by foliage application, M: velvetleaf (velvetleaf): 4 (Herbicidal rate of 70% or more and less than 90%)
Herbicidal effect by foliage application, N: redroot pigweed (redroot pigweed): 4 (Herbicidal rate of 70% or more and less than 90%)
Herbicidal effect by foliage application, O: lambsquarters (lambsquarters): 4 (Herbicidal rate of 70% or more and less than 90%)
Herbicidal effect by foliage application, P: chickweed (chickweed): 5 (Herbicidal rate of 90% or more (almost completely withered))
Herbicidal effect by foliage application, R: persian speedwell (persian speedwell): 4 (Herbicidal rate of 70% or more and less than 90%)

Cc1nn(C)c(=O)c(-c2c(-c3ccc(C(C)C)cc3)sc3cc(F)c(F)cc23)c1O [5-005]
herbicidal effect on barnyard grass (H) (barnyard grass [1]): 3 (Herbicidal rate of 40% or more and less than 70%)
herbicidal effect on Chinese sprangletop (D) (Chinese sprangletop): 5 (Herbicidal rate of 90% or more (almost completely withered))
herbicidal effect on rice flat sedge (E) (rice flat sedge): 4 (Herbicidal rate of 70% or more and less than 90%)
Herbicidal effect by foliage application, F: southern crabgrass (southern crabgrass): 0 (Herbicidal rate of 5% or less (almost no effect))
Herbicidal effect by foliage application, G: green foxtail (green foxtail): 0 (Herbicidal rate of 5% or less (almost no effect))
Herbicidal effect by foliage application, H: barnyard grass (barnyard grass [2]): 0 (Herbicidal rate of 5% or less (almost no effect))
Herbicidal effect by foliage application, I: wild oat (wild oat): 0 (Herbicidal rate of 5% or less (almost no effect))
Herbicidal effect by foliage application, J: blackgrass (blackgrass): 0 (Herbicidal rate of 5% or less (almost no effect))
Herbicidal effect by foliage application, K: Italian ryegrass (Italian ryegrass): 0 (Herbicidal rate of 5% or less (almost no effect))
Herbicidal effect by foliage application, L: windgrass (windgrass): 0 (Herbicidal rate of 5% or less (almost no effect))
Herbicidal effect by foliage application, M: velvetleaf (velvetleaf): 3 (Herbicidal rate of 40% or more and less than 70%)
Herbicidal effect by foliage application, N: redroot pigweed (redroot pigweed): 3 (Herbicidal rate of 40% or more and less than 70%)
Herbicidal effect by foliage application, O: lambsquarters (lambsquarters): 0 (Herbicidal rate of 5% or less (almost no effect))
Herbicidal effect by foliage application, P: chickweed (chickweed): 5 (Herbicidal rate of 90% or more (almost completely withered))
Herbicidal effect by foliage application, R: persian speedwell (persian speedwell): 4 (Herbicidal rate of 70% or more and less than 90%)
